The test system of one experiment is HeLa cells. The class given is cell-based.
Experiment [1] deals with patient-derived mouse xenograft tumors. Description: Speckle signature versus PT2399 sensitivity of patient-derived mouse xenograft ccRCC tumors. Type of experiment: in vivo. In general terms: In xenograft studies the graft and the host belong to different species.
Experimental: Methods for determining speckle signature and TCGA survival analysis. Four-hundred and forty-six protein genes annotated as “Enhanced”, “Supported”, or “Approved” for subcellular localization within nuclear speckles were identified in The Human Protein Atlas and their upper-quartile normalized RNA expression was extracted from the 30 PanCan TCGA projects that had greater than 50 samples. Principal Component Analysis was then performed on these 446 speckle protein genes. In doing so, each speckle protein gene was assigned a weight (called rotation in the analysis) that was used in the analysis to separate tumor sample along the first Principal Component (PC1). The absolute value of a speckle protein gene PC1 weight thus estimates the contribution of each speckle protein gene to patient variation and the PC1 weight sign, positive or negative, reflects genes that have opposite expression patterns to one another. To compare speckle protein gene expression contributions to patient variation between cancer types, the pairwise Pearson's correlation coefficients of the speckle protein PC1 weights were used. […] With collected ccRCC samples and published drug response studies, speckle scores were calculated using the above formula. […] Then differences in drug responses were calculated using a Fisher's exact test (FIG. 53) or Kaplan Meier statistics (FIG. 54).
Another experiment has as its system ccRCC. Nature of the experiment: ccRCC clinical trial, overall survival by speckle signature, nivolumab versus everolimus. The class given is in vivo, human. Particulars: nivolumab arm versus everolimus arm. An excerpt:
Without wishing to be bound by theory, it is envisioned that having both RNA- and imaging-based methods for measuring speckle phenotypes will assist in the development of cancer- and patient-specific treatment strategies. As a proof-of-concept for a potential use of nuclear speckle phenotyping, a series of studies was undertaken in which speckle signature was correlated with tumor/patient drug response in available data from a human clinical trial and patient-derived mouse xenograft studies.
Thus, contrasting with HIF-2a inhibition, PD1 inhibition may have a greater impact in individuals with Signature II tumors.
Methods for determining speckle signature and TCGA survival analysis. Four-hundred and forty-six protein genes annotated as “Enhanced”, “Supported”, or “Approved” for subcellular localization within nuclear speckles were identified in The Human Protein Atlas and their upper-quartile normalized RNA expression was extracted from the 30 PanCan TCGA projects that had greater than 50 samples. Principal Component Analysis was then performed on these 446 speckle protein genes. In doing so, each speckle protein gene was assigned a weight (called rotation in the analysis) that was used in the analysis to separate tumor sample along the first Principal Component (PC1). The absolute value of a speckle protein gene PC1 weight thus estimates the contribution of each speckle protein gene to patient variation and the PC1 weight sign, positive or negative, reflects genes that have opposite expression patterns to one another. To compare speckle protein gene expression contributions to patient variation between cancer types, the pairwise Pearson's correlation coefficients of the speckle protein PC1 weights were used. In order to obtain a set of speckle protein genes that consistently contributed to patient variation in many cancer types, the rotation signs were flipped so that the speckle protein gene, SON, was always assigned a negative weight. […] Speckle score was then used to separate samples into groups for Kaplan Meier and gene expression analysis between the two groups. With collected ccRCC samples and published drug response studies, speckle scores were calculated using the above formula. In drug-response data (related to FIG. 52), samples with positive speckle scores were considered speckle Signature I and samples with negative speckle scores were considered speckle Signature II. Then differences in drug responses were calculated using a Fisher's exact test (FIG. 53) or Kaplan Meier statistics (FIG. 54).

As to `[Cl-].[Cl-].[Co+2]` [CoCl2], the “speckle association of the CCND1 gene locus” value in the experiment with HeLa cells is on record as “increased speckle association of the CCND1 gene locus”.
In the case of `N#Cc1cc(F)cc(Oc2ccc(S(=O)(=O)C(F)F)c3c2CC(F)(F)[C@H]3O)c1` [PT2399], in experiment [1] (xenograft tumors with negative speckle score (Signature II)), the “fraction of Signature II tumors sensitive to PT2399” value is roughly 30%. Further, the “fraction of Signature I tumors sensitive to PT2399” value in experiment [1] (xenograft tumors with positive speckle score (Signature I)) is recorded as roughly 75%.
Regarding `CO[C@H]1C[C@@H]2CC[C@@H](C)[C@@](O)(O2)C(=O)C(=O)N2CCCC[C@H]2C(=O)O[C@H]([C@H](C)C[C@@H]2CC[C@@H](OCCO)[C@H](OC)C2)CC(=O)[C@H](C)/C=C(\C)[C@@H](O)[C@@H](OC)C(=O)[C@H](C)C[C@H](C)/C=C/C=C/C=C/1C` [everolimus], in the experiment with ccRCC, the “overall survival, Signature I patients” value is on record as “did not differ in overall survival between the two treatment groups” and the “overall survival probability, Signature II patients” value is on record as “higher overall survival probability when treated with nivolumab compared to everolimus”.
In the same order, the values of nivolumab are “did not differ in overall survival between the two treatment groups” and “higher overall survival probability when treated with nivolumab compared to everolimus”.
